In PubChem BioAssay AID330 (DTP/NCI, 2004):
“And” between values parts separate entries of the source, which are not always exact repeats. Equal values may be shown once. Inconclusive results and toxic doses are left out.

Tested on: P388 leukemia ip, CD2F1 mice, survival T/C
Assay: NCI In Vivo Anticancer Drug Screen. Data for tumor model P388 Leukemia (intraperitoneal) in CD2F1 (CDF1) mice
Conditions: endpoint: median survival time, higher = longer survival
In short: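 Mice carrying the transplanted tumor received test compound or vehicle. Survival was recorded in each group, and the value is the treated-group measurement divided by that of the vehicle-treated control group.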

COc1cccc2c1C(=O)c1c(O)c3c(c(O)c1C2=O)C[C@@](O)(C(C)=O)C[C@@H]3OC1CC(N)C(O)C(C)O1 (stereo partly specified)
T/C (dose: 0.06 mg/kg/injection, schedule: Q01DX009 (ip), vehicle: water): 104 % of control and 118 % of control
T/C (dose: 0.06 mg/kg/injection, schedule: Q03HX008 (ip), vehicle: saline): 118 % of control
T/C (dose: 0.08 mg/kg/injection, schedule: Q01DX005 (ip), vehicle: saline): 118 % of control
T/C (dose: 0.12 mg/kg/injection, schedule: Q01DX005 (ip), vehicle: water): 114 % of control
T/C (dose: 0.13 mg/kg/injection, schedule: Q03HX008 (ip), vehicle: saline): 120 % of control
T/C (dose: 0.16 mg/kg/injection, schedule: Q01DX005 (ip), vehicle: saline): 150 % of control and 167 % of control
T/C (dose: 0.16 mg/kg/injection, schedule: Q01DX009 (ip), vehicle: saline): 168 % of control
T/C (dose: 0.21 mg/kg/injection, schedule: Q01DX009 (ip), vehicle: water): 150 % of control
T/C (dose: 0.25 mg/kg/injection, schedule: Q01DX005 (ip), vehicle: water): 112 % of control
T/C (dose: 0.25 mg/kg/injection, schedule: Q04DX003 (ip), vehicle: saline): 100 % of control
T/C (dose: 0.32 mg/kg/injection, schedule: Q01DX001 (ip), vehicle: saline): 150 % of control
T/C (dose: 0.32 mg/kg/injection, schedule: Q01DX005 (ip), vehicle: saline): 175 % of control
T/C (dose: 0.32 mg/kg/injection, schedule: Q01DX009 (ip), vehicle: saline): 166 % of control
T/C (dose: 0.32 mg/kg/injection, schedule: Q03HX040 (ip), vehicle: saline): 116 % of control
T/C (dose: 0.39 mg/kg/injection, schedule: Q01DX009 (ip), vehicle: saline): 172 % of control
T/C (dose: 0.42 mg/kg/injection, schedule: Q01DX009 (ip), vehicle: water): 150 % of control and 155 % of control
T/C (dose: 0.5 mg/kg/injection, schedule: Q01DX001 (ip), vehicle: saline): 108 % of control
T/C (dose: 0.5 mg/kg/injection, schedule: Q01DX005 (ip), vehicle: water): 107 % of control
T/C (dose: 0.5 mg/kg/injection, schedule: Q01DX005 (oral), vehicle: water): 105 % of control
T/C (dose: 0.5 mg/kg/injection, schedule: Q01DX010 (ip), vehicle: saline): 163 % of control
T/C (dose: 0.5 mg/kg/injection, schedule: Q04DX003 (ip), vehicle: saline): 109 % of control
T/C (dose: 0.63 mg/kg/injection, schedule: Q01DX001 (ip), vehicle: saline): 166 % of control
T/C (dose: 0.63 mg/kg/injection, schedule: Q01DX009 (ip), vehicle: saline): 171 % of control
T/C (dose: 0.63 mg/kg/injection, schedule: Q03HX040 (ip), vehicle: saline): 112 % of control
T/C (dose: 0.64 mg/kg/injection, schedule: Q01DX001 (ip), vehicle: saline): 160 % of control
T/C (dose: 0.75 mg/kg/injection, schedule: Q04DX003 (ip), vehicle: saline): 110 % of control and 119 % of control
T/C (dose: 0.83 mg/kg/injection, schedule: Q01DX009 (ip), vehicle: water): 164 % of control and 169 % of control
T/C (dose: 1.0 mg/kg/injection, schedule: Q01DX001 (ip), vehicle: saline): 115 % of control
T/C (dose: 1.0 mg/kg/injection, schedule: Q01DX005 (oral), vehicle: water): 102 % of control
T/C (dose: 1.0 mg/kg/injection, schedule: Q01DX010 (ip), vehicle: saline): 172 % of control
T/C (dose: 1.0 mg/kg/injection, schedule: Q04DX002 (ip), vehicle: water): 158 % of control
T/C (dose: 1.0 mg/kg/injection, schedule: Q04DX003 (iv), vehicle: saline): 98 % of control
T/C (dose: 1.08 mg/kg/injection, schedule: Q01DX009 (ip), vehicle: saline): 172 % of control
T/C (dose: 1.08 mg/kg/injection, schedule: Q04DX003 (ip), vehicle: saline): 150 % of control and 152 % of control
T/C (dose: 1.08 mg/kg/injection, schedule: Q04DX003 (ip), vehicle: water): 157 % of control
T/C (dose: 1.25 mg/kg/injection, schedule: Q01DX001 (ip), vehicle: saline): 154 % of control
T/C (dose: 1.25 mg/kg/injection, schedule: Q01DX005 (ip), vehicle: saline): 162 % of control
T/C (dose: 1.25 mg/kg/injection, schedule: Q03HX008 (ip), vehicle: saline): 167 % of control
T/C (dose: 1.3 mg/kg/injection, schedule: Q01DX001 (ip), vehicle: water): 154 % of control
T/C (dose: 1.5 mg/kg/injection, schedule: Q04DX003 (ip), vehicle: saline): 116 % of control and 117 % of control
T/C (dose: 1.67 mg/kg/injection, schedule: Q01DX009 (ip), vehicle: water): 123 % of control
T/C (dose: 1.8 mg/kg/injection, schedule: Q01DX001 (ip), vehicle: water): 162 % of control
T/C (dose: 1.8 mg/kg/injection, schedule: Q01DX009 (ip), vehicle: saline): 163 % of control
T/C (dose: 1.8 mg/kg/injection, schedule: Q04DX003 (ip), vehicle: saline): 154 % of control
T/C (dose: 1.8 mg/kg/injection, schedule: Q04DX003 (ip), vehicle: water): 160 % of control
T/C (dose: 2.0 mg/kg/injection, schedule: Q01DX001 (ip), vehicle: saline): 114 % of control
T/C (dose: 2.0 mg/kg/injection, schedule: Q01DX005 (ip), vehicle: water): 153 % of control
T/C (dose: 2.0 mg/kg/injection, schedule: Q01DX005 (oral), vehicle: water): 114 % of control
T/C (dose: 2.0 mg/kg/injection, schedule: Q03HX024 (ip), vehicle: saline): 156 % of control
T/C (dose: 2.0 mg/kg/injection, schedule: Q04DX003 (iv), vehicle: saline): 102 % of control
T/C (dose: 2.4 mg/kg/injection, schedule: Q01DX001 (ip), vehicle: water): 163 % of control
T/C (dose: 2.5 mg/kg/injection, schedule: Q03HX008 (ip), vehicle: saline): 170 % of control
T/C (dose: 3.0 mg/kg/injection, schedule: Q01DX001 (ip), vehicle: saline): 150 % of control and 153 % of control
T/C (dose: 3.0 mg/kg/injection, schedule: Q01DX009 (ip), vehicle: saline): 104 % of control
T/C (dose: 3.2 mg/kg/injection, schedule: Q01DX001 (ip), vehicle: water): 171 % of control
T/C (dose: 4.0 mg/kg/injection, schedule: Q01DX001 (ip), vehicle: saline): 160 % of control
T/C (dose: 4.0 mg/kg/injection, schedule: Q01DX004 (ip), vehicle: saline): 99 % of control
T/C (dose: 4.0 mg/kg/injection, schedule: Q01DX005 (ip), vehicle: water): 164 % of control
T/C (dose: 4.0 mg/kg/injection, schedule: Q01DX005 (oral), vehicle: water): 104 % of control
T/C (dose: 4.0 mg/kg/injection, schedule: Q04DX003 (iv), vehicle: saline): 104 % of control and 113 % of control and 121 % of control
T/C (dose: 4.2 mg/kg/injection, schedule: Q01DX001 (ip), vehicle: water): 174 % of control
T/C (dose: 4.5 mg/kg/injection, schedule: Q01DX001 (ip), vehicle: saline): 166 % of control
T/C (dose: 4.5 mg/kg/injection, schedule: Q04DX003 (ip), vehicle: saline): 159 % of control
T/C (dose: 5.0 mg/kg/injection, schedule: Q01DX001 (ip), vehicle: saline): 159 % of control and 174 % of control
T/C (dose: 5.0 mg/kg/injection, schedule: Q01DX009 (ip), vehicle: water): 100 % of control
T/C (dose: 5.0 mg/kg/injection, schedule: Q04DX003 (ip), vehicle: saline): 118 % of control
T/C (dose: 5.0 mg/kg/injection, schedule: Q04DX003 (ip), vehicle: water): 118 % of control
T/C (dose: 5.6 mg/kg/injection, schedule: Q01DX001 (ip), vehicle: water): 106 % of control
T/C (dose: 6.0 mg/kg/injection, schedule: Q04DX003 (ip), vehicle: saline): 122 % of control
T/C (dose: 7.5 mg/kg/injection, schedule: Q01DX001 (ip), vehicle: water): 116 % of control
T/C (dose: 8.0 mg/kg/injection, schedule: Q01DX001 (ip), vehicle: saline): 124 % of control
T/C (dose: 8.0 mg/kg/injection, schedule: Q01DX005 (oral), vehicle: water): 102 % of control
T/C (dose: 8.0 mg/kg/injection, schedule: Q04DX003 (iv), vehicle: saline): 150 % of control
T/C (dose: 10.0 mg/kg/injection, schedule: Q01DX009 (ip), vehicle: water): 100 % of control
T/C (dose: 12.0 mg/kg/injection, schedule: Q04DX003 (ip), vehicle: saline): 150 % of control
T/C (dose: 12.5 mg/kg/injection, schedule: Q04DX003 (ip), vehicle: saline): 115 % of control
T/C (dose: 16.0 mg/kg/injection, schedule: Q01DX005 (oral), vehicle: water): 103 % of control
T/C (dose: 16.0 mg/kg/injection, schedule: Q04DX003 (iv), vehicle: saline): 104 % of control
T/C (dose: 20.0 mg/kg/injection, schedule: Q01DX009 (ip), vehicle: water): 110 % of control
T/C (dose: 0.3 micrograms/kg/injection, schedule: Q03HX008 (ip), vehicle: saline): 123 % of control
T/C (dose: 0.6 micrograms/kg/injection, schedule: Q03HX040 (ip), vehicle: saline): 109 % of control
T/C (dose: 7.5 micrograms/kg/injection, schedule: Q03HX024 (ip), vehicle: saline): 155 % of control
T/C (dose: 16.3 micrograms/kg/injection, schedule: Q03HX024 (ip), vehicle: saline): 165 % of control

CC(C)(C)OC(=O)NC1CN(OCc2ccccc2)C1=O (stereo unspecified)
T/C (dose: 50.0 mg/kg/injection, schedule: Q01DX005 (ip), vehicle: saline with Tween-80): 100 % of control
T/C (dose: 100.0 mg/kg/injection, schedule: Q01DX005 (ip), vehicle: saline with Tween-80): 94 % of control
T/C (dose: 200.0 mg/kg/injection, schedule: Q01DX005 (ip), vehicle: saline with Tween-80): 89 % of control
